# Like-named read-outs stand apart in the source and are kept apart here.
# Assays:
# rat NHE-3 = molecular target: T1, rat NHE-3 (Rattus norvegicus, UniProt P26433); test: Cell-based assay of NHE-3 activity (Pharmacological Test Example 1); details: for IC50: read-out: rat NHE-3 Average pIC50 (converted)
# T1 construct: expressed in transfected cells; host or cells: Opossum kidney (OK) cells (ATCC), electroporated
# Experimental: Rat NHE-3-mediated Na^+-dependent H^+ antiport was measured using a modification of the pH sensitive dye method originally reported by Tsien (Proc. Natl. Acad. Sci. USA. (1984) 81(23): 7436-7440). Opossum kidney (OK) cells were obtained from the ATCC and propagated per their instructions. The rat NHE-3 gene was introduced into OK cells via electroporation, seeded into 96 well plates and grown overnight. Medium was aspirated from the wells, cells were washed twice with NaCl-HEPES buffer (100 mM NaCl, 50 mM HEPES, 10 mM glucose, 5 mM KCl, 2 mM CaCl2, 1 mM MgCl2, pH 7.4), then incubated for 30 min at room temperature with NH4Cl-HEPES buffer (20 mM NH4Cl, 80 mM NaCl, 50 mM HEPES, 5 mM KCl, 2 mM CaCl2), 1 mM MgCl2, pH 7.4) containing 5 uM BCECF-AM (Invitrogen). Cells were washed twice with Ammonium free, Nat-free HEPES (100 mM choline, 50 mM HEPES, 10 mM glucose, 5 mM KCl, 2 mM CaCl2), 1 mM MgCl2, pH 7.4) and incubated in the same buffer for 10 minutes at room temperature to lower intracellular pH. […] Initial rates were plotted as the average 3-6 replicates, and pIC50 values were estimated using GraphPad Prism.
# [1] = Determination of compound Cmax and AUC; format: in vivo; details: rat; Sprague-Dawley rats, oral gavage, serum 0.5-4 h; actual oral dose (mg/kg) given
# Experimental: Sprague-Dawley rats were orally gavaged with test article (2.5 mg/kg) and serum was collected at 0.5, 1, 2 and 4 h. Serum samples were treated with acetonitrile, precipitated proteins removed by centrifugation and supernatants analyzed by LC/MS/MS and compared against a standard curve to determine compound concentration. All compounds were orally dosed at the dosage shown, and pharmacokinetic parameters determined as described in the text.
# [2] = OK cells expressing rat NHE-3, 0-30 uM test compound, 5 uM EIPA
# T1 sequence (P26433 29-831): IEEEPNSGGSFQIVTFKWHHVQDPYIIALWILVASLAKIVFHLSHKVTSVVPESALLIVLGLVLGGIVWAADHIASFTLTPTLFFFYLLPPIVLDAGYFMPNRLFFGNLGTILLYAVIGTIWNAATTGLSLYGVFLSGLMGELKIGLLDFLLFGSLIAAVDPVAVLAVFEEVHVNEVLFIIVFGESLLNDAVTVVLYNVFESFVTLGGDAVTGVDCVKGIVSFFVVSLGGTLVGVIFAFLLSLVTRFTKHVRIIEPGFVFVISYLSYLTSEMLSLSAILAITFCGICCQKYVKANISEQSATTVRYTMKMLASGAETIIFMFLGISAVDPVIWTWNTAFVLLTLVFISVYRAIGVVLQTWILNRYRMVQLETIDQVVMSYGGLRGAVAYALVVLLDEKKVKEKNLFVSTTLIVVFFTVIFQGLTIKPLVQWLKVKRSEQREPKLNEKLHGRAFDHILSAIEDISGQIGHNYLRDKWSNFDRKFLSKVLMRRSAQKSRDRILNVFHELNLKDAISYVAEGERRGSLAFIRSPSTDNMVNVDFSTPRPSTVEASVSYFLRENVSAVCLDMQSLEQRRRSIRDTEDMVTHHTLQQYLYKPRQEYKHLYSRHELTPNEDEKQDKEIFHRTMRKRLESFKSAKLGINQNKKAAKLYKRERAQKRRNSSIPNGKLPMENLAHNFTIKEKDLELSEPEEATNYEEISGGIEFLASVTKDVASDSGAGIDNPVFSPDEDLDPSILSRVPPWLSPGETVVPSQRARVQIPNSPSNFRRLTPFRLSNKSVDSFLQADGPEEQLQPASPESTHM
AUC [1] [ng·h/mL],Cmax [1] [ng/mL],rat NHE-3 Average pIC50 (rat NHE-3; [2]),IC50 (rat NHE-3; [2]) [nM],Compound,rat NHE-3 Average pIC50 (rat NHE-3)
< 4.4,< 2.7,,< 100,"C/C(=C\c1cc(F)c(Oc2ccc(S(=O)(=O)NCCOCCOCCOCCNC(=O)[C@H](O)[C@@H](O)C(=O)NCCOCCOCCOCCNS(=O)(=O)c3ccc(Oc4c(F)cc(/C=C(\C)C(=O)N=C(N)N)cc4F)cc3)cc2)c(F)c1)C(=O)N=C(N)N [Example 212, (2R,3R)—N1,N4-bis(2-(2-(2-(2-(4-(4-((E)-3-(diaminomethyleneamino)-2-methyl-3-oxoprop-1-enyl)-2,6-difluorophenoxy)phenylsulfonamido)ethoxy)ethoxy)ethoxy)ethyl)-2,3-dihydroxysuccinamide]",
< 2,< 2,>7,,"CN1Cc2c(Cl)cc(Cl)cc2C(c2cccc(S(=O)(=O)NCCOCCOCCOCCNC(=O)c3cc(C(=O)NCCOCCOCCOCCNS(=O)(=O)c4cccc(C5CN(C)Cc6c(Cl)cc(Cl)cc65)c4)cc(C(=O)NCCOCCOCCOCCNS(=O)(=O)c4cccc(C5CN(C)Cc6c(Cl)cc(Cl)cc65)c4)c3)c2)C1 (stereo not drawn) [Example 215, N1,N3,N5-tris(2-(2-(2-(2-(3-(6,8-dichloro-2-methyl-1,2,3,4-tetrahydroisoquinolin-4-yl)phenylsulfonamido)ethoxy)ethoxy)ethoxy)ethyl)benzene-1,3,5-tricarboxamide]",
< 5,< 5,>7,,"CN1Cc2c(Cl)cc(Cl)cc2C(c2cccc(S(=O)(=O)NCCOCCOCCOCCNC(=O)NCCCCNC(=O)NCCOCCOCCOCCNS(=O)(=O)c3cccc(C4CN(C)Cc5c(Cl)cc(Cl)cc54)c3)c2)C1 (stereo not drawn) [Example 208, N,N′-(13,20-dioxo-3,6,9,24,27,30-hexaoxa-12,14,19,21-tetraazadotriacontane-1,32-diyl)bis(3-(6,8-dichloro-2-methyl-1,2,3,4-tetrahydroisoquinolin-4-yl)benzenesulfonamide)]",
< 3,< 2.3,6 to 7,,"C/C(=C\c1cc(F)c(Oc2ccc(S(=O)(=O)NCCOCCOCCOCCOCCOCCOCCN)cc2)c(F)c1)C(=O)N=C(N)N [Example 211, (E)-3-(4-(4-(N-(20-amino-3,6,9,12,15,18-hexaoxaicosyl)sulfamoyl)phenoxy)-3,5-difluorophenyl)-N-(diaminomethylene)-2-methylacrylamide]",
< 5,< 5,6 to 7,,"CN1Cc2c(Cl)cc(Cl)cc2C(c2cccc(S(=O)(=O)NCCOCCOCCOCCNC(=O)c3cccc(C(=O)NCCOCCOCCOCCNS(=O)(=O)c4cccc(C5CN(C)Cc6c(Cl)cc(Cl)cc65)c4)c3)c2)C1 (stereo not drawn) [Example 228, N1,N3-bis(2-(2-(2-(2-(3-(6,8-dichloro-2-methyl-1,2,3,4-tetrahydroisoquinolin-4-yl)phenylsulfonamido)ethoxy)ethoxy)ethoxy)-ethyl)isophthalamide]",
< 5.3,< 3.5,,100 to 1000,"CN1Cc2c(Cl)cc(Cl)cc2[C@H](c2ccc(S(=O)(=O)NCCOCCOCCOCCNC(=O)C(O)C(O)C(=O)NCCOCCOCCOCCNS(=O)(=O)c3ccc([C@@H]4CN(C)Cc5c(Cl)cc(Cl)cc54)cc3)cc2)C1 (single isomer, unassigned) [Example 225, N1,N4-bis(2-(2-(2-(2-(4-((S or R)-6,8-dichloro-2-methyl-1,2,3,4-tetrahydroisoquinolin-4-yl)phenylsulfonamido)ethoxy)ethoxy)ethoxy)ethyl)-2,3-dihydroxysuccinamide]",
< 10,< 10,6 to 7,,"CN1Cc2c(Cl)cc(Cl)cc2C(c2cccc(S(=O)(=O)NCCOCCOCCOCCOCCOCCOCCOCCOCCOCCOCCNC(=O)CCOCCOCCOCCOCCOCCOCCOCCOCCOCCC(=O)NCCOCCOCCOCCOCCOCCOCCOCCOCCOCCOCCNS(=O)(=O)c3cccc(C4CN(C)Cc5c(Cl)cc(Cl)cc54)c3)c2)C1 (stereo not drawn) [Example 217, N1,N31-bis(32-(3-(6,8-dichloro-2-methyl-1,2,3,4-tetrahydroisoquinolin-4-yl)phenylsulfonamido)-3,6,9,12,15,18,21,24,27,30-decaoxadotriacontyl)-4,7,10,13,16,19,22,25,28-nonaoxahentriacontane-1,31-diamide]",
,,6 to 7,,"CN1Cc2c(Cl)cc(Cl)cc2C(c2ccc(S(=O)(=O)NCCOCCOCCNC(=O)[C@H](O)[C@@H](O)C(=O)NCCOCCOCCNS(=O)(=O)c3ccc(C4CN(C)Cc5c(Cl)cc(Cl)cc54)cc3)cc2)C1 (stereo partly drawn) [Example 207, (2R,3R)—N1,N4-bis(2-(2-(2-(4-(6,8-dichloro-2-methyl-1,2,3,4-tetrahydroisoquinolin-4-yl)phenylsulfonamido)ethoxy)ethoxy)ethyl)-2,3-dihydroxysuccinamide]",

# The remaining lines, values behind:
Compound,AUC [1] [ng·h/mL],Cmax [1] [ng/mL],rat NHE-3 Average pIC50 (rat NHE-3; [2]),IC50 (rat NHE-3; [2]) [nM],rat NHE-3 Average pIC50 (rat NHE-3)
"CN1Cc2c(Cl)cc(Cl)cc2C(c2ccc(S(=O)(=O)NCCOCCOCCNC(=O)c3ccc(C(=O)NCCOCCOCCNS(=O)(=O)c4ccc(C5CN(C)Cc6c(Cl)cc(Cl)cc65)cc4)cc3)cc2)C1 (stereo not drawn) [Example 231, N1,N4-bis(2-(2-(2-(4-(6,8-dichloro-2-methyl-1,2,3,4-tetrahydroisoquinolin-4-yl)phenylsulfonamido)ethoxy)ethoxy)ethyl)terephthalamide]",< 3,< 2.5,,,<5.0
"CN1Cc2c(Cl)cc(Cl)cc2C(c2ccc(S(=O)(=O)NCCOCCOCCNC(=O)NCCOCCOCCNS(=O)(=O)c3ccc(C4CN(C)Cc5c(Cl)cc(Cl)cc54)cc3)cc2)C1 (stereo not drawn) [Example 232, N,N′-(10-oxo-3,6,14,17-tetraoxa-9,11-diazanonadecane-1,19-diyl)bis(4-(6,8-dichloro-2-methyl-1,2,3,4-tetrahydroisoquinolin-4-yl)benzenesulfonamide)]",< 2,< 2,,,<5.0
"CN1Cc2c(Cl)cc(Cl)cc2C(c2ccc(S(=O)(=O)NCCOCCOCCNC(=O)C(O)C(O)C(=O)NCCOCCOCCNS(=O)(=O)c3ccc(C4CN(C)Cc5c(Cl)cc(Cl)cc54)cc3)cc2)C1 (stereo not drawn) [Example 205, N1,N4-bis(2-(2-(2-(4-(6,8-dichloro-2-methyl-1,2,3,4-tetrahydroisoquinolin-4-yl)phenylsulfonamido)ethoxy)ethoxy)ethyl)-2,3-dihydroxysuccinamide]",< 2,< 2,>7,,
"CN1Cc2c(Cl)cc(Cl)cc2C(c2ccc(S(=O)(=O)NCC(=O)NCC(=O)NCC(=O)NCCCCNC(=O)CNC(=O)CNC(=O)CNS(=O)(=O)c3ccc(C4CN(C)Cc5c(Cl)cc(Cl)cc54)cc3)cc2)C1 (stereo not drawn) [Example 204, N,N′-(butane-1,4-diyl)bis(2-(2-(2-(4-(6,8-dichloro-2-methyl-1,2,3,4-tetrahydroisoquinolin-4-yl)phenylsulfonamido)acetamido)acetamido)acetamide)]",< 2,< 2,>7,,
"CN1Cc2c(Cl)cc(Cl)cc2C(c2cccc(S(=O)(=O)NCCOCCOCCOCCNC(=O)c3ccccc3C(=O)NCCOCCOCCOCCNS(=O)(=O)c3cccc(C4CN(C)Cc5c(Cl)cc(Cl)cc54)c3)c2)C1 (stereo not drawn) [Example 230, N1,N2-bis(2-(2-(2-(2-(3-(6,8-dichloro-2-methyl-1,2,3,4-tetrahydroisoquinolin-4-yl)phenylsulfonamido)ethoxy)ethoxy)ethoxy)-ethyl)phthalamide]",< 5,< 5,,,>7
"CN1Cc2c(Cl)cc(Cl)cc2C(c2ccc(S(=O)(=O)NCCOCCOCCOCCNC(=O)c3ccc(C(=O)NCCOCCOCCOCCNS(=O)(=O)c4ccc(C5CN(C)Cc6c(Cl)cc(Cl)cc65)cc4)cc3)cc2)C1 (stereo not drawn) [Example 233, N1,N4-bis(2-(2-(2-(2-(4-(6,8-dichloro-2-methyl-1,2,3,4-tetrahydroisoquinolin-4-yl)phenylsulfonamido)ethoxy)ethoxy)ethoxy)ethyl)terephthalamide]",< 6.8,< 2.6,,,<5.0
"NC(N)=NCCCN1CCN(c2cccc(-c3nc(N=C(N)N)nc4ccc(Cl)cc34)c2)CC1 [Example 67, 2-(4-(3-(4-(3-guanidinopropyl)piperazin-1-yl)phenyl)-6-chloroquinazolin-2-yl)guanidine]",,,6 to 7,,
"CN1Cc2c(Cl)cc(Cl)cc2C(c2ccc(S(=O)(=O)NCCOCCOCCOCCNC(=O)NCCOCCOCCOCCNS(=O)(=O)c3ccc(C4CN(C)Cc5c(Cl)cc(Cl)cc54)cc3)cc2)C1 (stereo not drawn) [Example 103, N,N′-(13-oxo-3,6,9,17,20,23-hexaoxa-12,14-diazapentacosane-1,25-diyl)bis(4-(6,8-dichloro-2-methyl-1,2,3,4-tetrahydroisoquinolin-4-yl)benzenesulfonamide)]",,,>7,,

# From patent US20190374533A1, “COMPOUNDS AND METHODS FOR INHIBITING NHE-MEDIATED ANTIPORT IN THE TREATMENT OF DISORDERS ASSOCIATED WITH FLUID RETENTION OR SALT OVERLOAD AND GASTROINTESTINAL TRACT DISORDERS” (Ardelyx, Inc., priority 2008, published 2019)
